According to patent publication US10105357B2, “Indication of antibiotic drugs for preparation of cancer inhibition pharmaceutical composition” (LAUNX BIOMEDICAL CO., LTD., priority 2014, dated 2018):
Where a name gives a salt, the structure may show the parent alone. Read-outs that look alike come from different tables or passages of the source.

How the values were obtained:
[1] = tested on: HI650 (Lung Adenocarcinoma); test: Cell viability analysis, lung cancer HI650; assay type: cell-based, human; conditions: Homo sapiens, NCI-H1650, 72 h
[2] = tested on: A549 (Lung Adenocarcinoma); test: Cell viability analysis, lung cancer A549; assay type: cell-based, human; conditions: Homo sapiens, A549, 72 h
[3] = tested on: AGS (Gastric Adenocarcinoma); test: Cell viability analysis, gastric cancer AGS; assay type: cell-based, human; conditions: Homo sapiens, 72 h
[4] = tested on: MKN-45 (Gastric Adenocarcinoma); test: Cell viability analysis, gastric cancer MKN-45; assay type: cell-based, human; conditions: Homo sapiens, MKN-45, 72 h
[5] = tested on: Hep3B (hepatocellular carcinoma); test: Cell viability analysis, hepatic cancer Hep3B; assay type: cell-based, human; conditions: Homo sapiens, Hep3B, 72 h, read-out: The results of antibiotic drug inhibiting cancer cell lines (cell viability analysis), Hep3B
[6] = tested on: LoVo (Colorectal Adenocarcinoma); test: Cell viability analysis, colon cancer LoVo; assay type: cell-based, human; conditions: Homo sapiens, LoVo, 72 h
[7] = tested on: A375 (Amelanotic Melanoma); test: Cell viability analysis, skin cancer A375; assay type: cell-based, human; conditions: Homo sapiens, A-375, 72 h
[8] = tested on: BCC (basal cell carcinoma); test: Cell viability analysis, skin cancer BCC; assay type: cell-based, human; conditions: Homo sapiens, 72 h, read-out: The results of antibiotic drug inhibiting cancer cell lines (cell viability analysis), BCC
[9] = tested on: HeLa (Cervix Adenocarcinoma); test: Cell viability analysis, cervical cancer HeLa; assay type: cell-based, human; conditions: Homo sapiens, HeLa, 72 h
[10] = tested on: C-33A (Cervical carcinoma); test: Cell viability analysis, cervical cancer C-33A; assay type: cell-based, human; conditions: Homo sapiens, C-33-A, 72 h, read-out: The results of antibiotic drug inhibiting cancer cell lines (cell viability analysis), C-33A
[11] = tested on: PC3 (p53−) (Prostate Adenocarcinoma); test: Cell viability analysis, prostate cancer PC3; assay type: cell-based, human; conditions: Homo sapiens, 72 h
[12] = tested on: TSGH-8301 (Urinary Bladder Carcinoma); test: Cell viability analysis, bladder cancer TSGH-8301; assay type: cell-based, human; conditions: Homo sapiens, 72 h
T24 = test: Cell viability analysis, bladder cancer T24; assay type: cell-based, human; conditions: Homo sapiens, T-24, 72 h, read-out: The results of antibiotic drug inhibiting cancer cell lines (cell viability analysis), T24
[13] = tested on: MCF7 (Mammary Gland, Adenocarcinoma); test: Cell viability analysis, breast cancer MCF7; assay type: cell-based, human; conditions: Homo sapiens, MCF7, 72 h
[14] = tested on: MDA-MB-231 (Mammary Gland, Adenocarcinoma); test: Cell viability analysis, breast cancer MDA-MB-231; assay type: cell-based, human; conditions: Homo sapiens, MDA-MB-231, 72 h, read-out: The results of antibiotic drug inhibiting cancer cell lines (cell viability analysis), MDA-MB231
BxPC-3 = test: Cell viability analysis, pancreatic cancer BxPC-3; assay type: cell-based, human; conditions: Homo sapiens, BXPC-3, 72 h, read-out: The results of antibiotic drug inhibiting cancer cell lines (cell viability analysis), BxPC-3
AsPC-1 = test: Cell viability analysis, pancreatic cancer AsPC-1; assay type: cell-based, human; conditions: Homo sapiens, ASPC1, 72 h, read-out: The results of antibiotic drug inhibiting cancer cell lines (cell viability analysis), AsPC-1
NIH: OVCAR-3 = test: Cell viability analysis, ovarian cancer NIH: OVCAR-3; assay type: cell-based, human; conditions: Homo sapiens, OVCAR-3, 72 h, read-out: The results of antibiotic drug inhibiting cancer cell lines (cell viability analysis), NIH-OVCAR-3
TOV-21G = test: Cell viability analysis, ovarian cancer TOV-21G; assay type: cell-based, human; conditions: Homo sapiens, TOV21G, 72 h, read-out: The results of antibiotic drug inhibiting cancer cell lines (cell viability analysis), TOV-21G
[15] = tested on: SAS (Tongue squamous cell carcinoma); test: Cell viability analysis, tongue cancer SAS; assay type: cell-based, human; conditions: Homo sapiens, 72 h, read-out: The results of antibiotic drug inhibiting cancer cell lines (cell viability analysis), SAS
U-2OS = test: Cell viability analysis, osteosarcoma U-2OS; assay type: cell-based, human; conditions: Homo sapiens, U2OS, 72 h, read-out: The results of antibiotic drug inhibiting cancer cell lines (cell viability analysis), U2OS
[16] = tested on: 786-O (Renal adenocarcinoma); test: Cell viability analysis, renal cancer 786-O; assay type: cell-based, human; conditions: Homo sapiens, 786-0, 72 h, read-out: The results of antibiotic drug inhibiting cancer cell lines (cell viability analysis), 786-O
[17] = tested on: HL-60 (Acute Promyelocytic Leukemia); test: Cell viability analysis, leukemia HL-60; assay type: cell-based, human; conditions: Homo sapiens, HL-60, 72 h, read-out: cell viability (survival rate), HL-60, drug 10 μM, 72 hours, WST-1, OD450 nm
[18] = tested on: HCT116 (p53+) (Colorectal Carcinoma)

CN(C)[C@@H]1C(O)=C(C(N)=O)C(=O)[C@@]2(O)C(O)=C3C(=O)c4c(O)ccc(Cl)c4[C@@](C)(O)[C@H]3C[C@@H]12 [Chlortetracycline HCl]
viability at 10 µM ([1]; read-out: The results of antibiotic drug inhibiting cancer cell lines (cell viability analysis), H1650, H1650, repeated experiment): 88.5% | viability at 10 µM ([1]; read-out: cell viability (survival rate), H1650, drug 10 μM, 72 hours, WST-1, OD450 nm): 59.9% | viability at 10 µM ([2]; read-out: The results of antibiotic drug inhibiting cancer cell lines (cell viability analysis), A549, A549, repeated experiment): 99.3% | viability at 10 µM ([2]; read-out: cell viability (survival rate), A549, drug 10 μM, 72 hours, WST-1, OD450 nm): 45.8% | viability at 10 µM ([3]; read-out: The results of antibiotic drug inhibiting cancer cell lines (cell viability analysis), AGS, repeated experiment): 99.9% | viability at 10 µM ([3]; read-out: cell viability (survival rate), AGS, drug 10 μM, 72 hours, WST-1, OD450 nm): 69.7% | viability at 10 µM ([4]; read-out: The results of antibiotic drug inhibiting cancer cell lines (cell viability analysis), MKN-45, MKN-45, repeated experiment): 142% | viability at 10 µM ([4]; read-out: cell viability (survival rate), MKN-45, drug 10 μM, 72 hours, WST-1, OD450 nm): 43% | viability at 10 µM [5]: 117% | viability at 10 µM ([6]; read-out: The results of antibiotic drug inhibiting cancer cell lines (cell viability analysis), LoVo, repeated experiment): 74.4% | viability at 10 µM ([6]; read-out: cell viability (survival rate), LoVo, drug 10 μM, 72 hours, WST-1, OD450 nm): 61.4% | viability at 10 µM ([7]; read-out: The results of antibiotic drug inhibiting cancer cell lines (cell viability analysis), A375, A375, repeated experiment): 108% | viability at 10 µM ([7]; read-out: cell viability (survival rate), A375, drug 10 μM, 72 hours, WST-1, OD450 nm): 49.2% | viability at 10 µM [8]: 97.1% | viability at 10 µM ([9]; read-out: The results of antibiotic drug inhibiting cancer cell lines (cell viability analysis), HeLa, repeated experiment): 84% | viability at 10 µM ([9]; read-out: cell viability (survival rate), HeLa, drug 10 μM, 72 hours, WST-1, OD450 nm): 83.9% | viability at 10 µM [10]: 88% | viability at 10 µM ([11]; read-out: The results of antibiotic drug inhibiting cancer cell lines (cell viability analysis), PC-3, PC-3, repeated experiment): 108% | viability at 10 µM ([11]; read-out: cell viability (survival rate), PC3, drug 10 μM, 72 hours, WST-1, OD450 nm): 38.2% | viability at 10 µM ([12]; read-out: The results of antibiotic drug inhibiting cancer cell lines (cell viability analysis), TSGH-8301, TSGH-8301, repeated experiment): 152% | viability at 10 µM ([12]; read-out: cell viability (survival rate), TSGH, drug 10 μM, 72 hours, WST-1, OD450 nm): 50.4% | viability at 10 µM (T24): 122% | viability at 10 µM ([13]; read-out: The results of antibiotic drug inhibiting cancer cell lines (cell viability analysis), MCF-7, MCF-7, repeated experiment): 93.4% | viability at 10 µM ([13]; read-out: cell viability (survival rate), MCF7, drug 10 μM, 72 hours, WST-1, OD450 nm): 32.2% | viability at 10 µM [14]: 83.2% | viability at 10 µM (BxPC-3): 63.7% | viability at 10 µM (AsPC-1): 82.1% | viability at 10 µM (NIH: OVCAR-3): 99.3% | viability at 10 µM (TOV-21G): 92.2% | viability at 10 µM [15]: 97.4% | viability at 10 µM (U-2OS): 80.3% | viability at 10 µM [16]: 91.4% | viability at 10 µM [17]: 83.9% | viability [18]: 91.5%
